Data on 26 substances can be found in publication PMC5458078, “Global mapping of CARM1 substrates defines enzyme specificity and substrate recognition” (Nature Communications, 2017).

Assay [1] relates to MCF7 CARM1 KO cells. The experiment in a line: Quantitative MS of ADMA-containing peptides in MCF7 CARM1 KO cells expressing CARM1 28-608 or CARM1 140-608, and in CARM1 KO. In kind it is cell-based, human.
Assay [2] deals with MCF7 cells. The experiment in a line: Quantitative nanoLC-MS/MS (TMT) of ADMA-containing peptides, CARM1 KO vs parental. Set-up: Fold change KO/WT: scale not given here. The assay is classed as cell-based, human.
Setting [3] is: ratio on log2 scale, mean of 3 replicates.
[4] abbreviates: MCF7, CARM1 knockout vs wild type, n = 3 each.
[5] abbreviates: CARM1 140-608 versus WT, mean of three replicates (log2).
Where [6] appears, read: KO versus WT, mean of three replicates (log2).
The mark [7] stands for this setting: ADMA-containing peptide, CARM1 knockout (KO) vs wild type (WT) MCF7 cells, 6-plex TMT experiment #1, three biological replicates each, sheet "MCF7".
Where [8] appears, read: log2 scale ratio, mean of n = 3.
The mark [9] stands for this setting: ADMA-containing peptide, MCF7, CARM1 knockout (KO1-3) vs wild type (WT1-3), TMT 6-plex experiment #1.
[10] abbreviates: CARM1 140-608 versus WT, difference of mean log2 values.
[11] abbreviates: CARM1 KO versus WT, difference of mean log2 values.
Where [12] appears, read: CARM1 KO vs wild type MCF7 cells, 3 biological replicates each.
[13] abbreviates: mean, CARM1 140-608 versus WT (log2 scale).
[14] abbreviates: mean, CARM1 KO versus WT (log2 scale).
Where [15] appears, read: MCF7 CARM1 knockout vs wild type, 3 biological replicates each, values are on log2 scale.
Where [16] appears, read: CARM1 140-608 vs WT, mean of 3 replicates (log2 scale).
The mark [17] stands for this setting: KO vs WT, mean of 3 replicates (log2 scale).
Setting [18] is: MCF7, CARM1 KO (KO1-KO3) vs wild type (WT1-WT3).
The mark [19] stands for this setting: CARM1 140-608 vs WT, mean of 3 replicates, log2.
[20] abbreviates: KO vs WT, mean of 3 replicates, log2.
Where [21] appears, read: MCF7, CARM1 KO vs WT, three biological replicates each.

Where two headings read alike, the source gives them in different places.

On to GrGFAGVCGFGGPYGETVATGPYrAFR, for which, in assay [1] (setting [3]), the “CARM1 140-608/WT” value was -1.219 and the KO/WT is recorded as -1.965. For the same substance, the “Fold change KO/WT” value in assay [2] (setting [4]) is reported as -1.965.
In the case of GrGSLLLR, in assay [1] (setting [5]), the “CARM1 140-608/WT” value amounted to 0.6421. The KO/WT in assay [1] (setting [6]) is given as 1.1394. In assay [2] (setting [7]), the “Fold change KO/WT” value was determined as 1.1394.
With “GrGTLTrGAFVGATAAPGYIAPGYGTPYGYSTAAPAYGLPK”, in assay [1] (setting [8]), the “CARM1 140-608/WT” value is listed as -0.05087 and the KO/WT is 0.2558. The “Fold change KO/WT” value in assay [2] (setting [9]) was 0.06714.
HASErGHLR: the “CARM1 140-608/WT” value in assay [1] (setting [10]) was found to be 0.2697. In assay [1] (setting [11]), the KO/WT came out at 1.422. Moreover, the “Fold change KO/WT” value in assay [2] (setting [12]) is 1.422.
For “HQQLQQMrMQQPPAPVPTTTTTTQQHPrQAAPQMLQQQPPrLISVQTMQR”, in assay [1] (setting [10]), the “CARM1 140-608/WT” value is -0.9301. Moreover, in assay [1] (setting [11]), the KO/WT was -2.355. Moreover, the figures for the “Fold change KO/WT” value in assay [2] (setting [9]) and in assay [2] (setting [12]) were -1.659 and -1.574, respectively.
Take HSAYSYCGrGFYPQYGALETrGGFNPR: the “CARM1 140-608/WT” value in assay [1] (setting [13]) was -0.5986. Further, the KO/WT in assay [1] (setting [14]) is reported as -0.0486. In assay [2] (setting [15]), the “Fold change KO/WT” value was -0.3157.
As for IAQPVrSFLQPPKPLSSLSTLR, in assay [1] (setting [16]), the “CARM1 140-608/WT” value is -1.679. Further, the KO/WT in assay [1] (setting [17]) is on record as -2.977. Moreover, the “Fold change KO/WT” value in assay [2] (setting [18]) is -2.977.
As for INPLPGGrNFSGTASTSLLGPPPGLLTPPVATELSQNAR, in assay [1] (setting [19]), the “CARM1 140-608/WT” value was -1.005. For the same substance, the KO/WT in assay [1] (setting [20]) is -2.627. In addition, the “Fold change KO/WT” value in assay [2] (setting [21]) is given as -2.627.
As to IPGIPrHSGPQYSMMQPHLQR, in assay [1] (setting [10]), the “CARM1 140-608/WT” value is 1.323. The KO/WT in assay [1] (setting [11]) is -0.1608. In addition, in assay [2] (setting [12]), the “Fold change KO/WT” value is on record as -0.5283.
As to IPYPAGTLPNPLLPHPLHENEVLrHQLFAAPYR, the “CARM1 140-608/WT” value in assay [1] (setting [19]) is -0.5059. In addition, the KO/WT in assay [1] (setting [20]) is reported as -1.312. For the same substance, the “Fold change KO/WT” value in assay [2] (setting [21]) is on record as -1.146.
ISSSSFSrVGSSNFR: in assay [1], the “CARM1 140-608/WT” value is -2.763 and the KO/WT was -3.151. Moreover, in assay [2] (setting [15]), the “Fold change KO/WT” value is given as -3.151.
Consider ITVPrLSVGSVTSrPSTPTLGTPTPQTMSVSTK, for which, in assay [1] (setting [8]), the “CARM1 140-608/WT” value is given as -1.745 and the KO/WT is listed as -2.222. Further, the “Fold change KO/WT” value in assay [2] (setting [9]) was -2.222.
Regarding KDLYANTVLSGGSTMYPGIADr, in assay [1] (setting [19]), the “CARM1 140-608/WT” value is -0.3764. Also, the KO/WT in assay [1] (setting [20]) is recorded as -0.3193. Further, in assay [2] (setting [21]), the “Fold change KO/WT” value is -0.3193.
Regarding KLFIGGLSFETTDDSLr, the “CARM1 140-608/WT” value in assay [1] (setting [13]) is on record as -0.2797. The same substance displayed a KO/WT in assay [1] (setting [14]) of 0.2164. The “Fold change KO/WT” value in assay [2] (setting [4]) was -0.1026.
The matching figures for KPLGTAPHCPrLPLR: -2.281, -3.016 and -3.016.
Taken in the same sequence, the figures for KPLGTAPHCPrLPLRK were -2.5902, -4.08 and -4.08.
Consider KPLPLGVrAPLAGPSAAAR, for which, in assay [1] (setting [16]), the “CARM1 140-608/WT” value was -2.373. Also, the KO/WT in assay [1] (setting [17]) was -2.562. Moreover, in assay [2] (setting [18]), the “Fold change KO/WT” value was -2.562.
As for “KPPNQSLPLQPFQLAFGHQVNrQVFrQGPPPPNPVAAFPPQK”, in assay [1] (setting [3]), the “CARM1 140-608/WT” value was -2.162 and the KO/WT is given as -3.229. Besides, the “Fold change KO/WT” value in assay [2] (setting [4]) is recorded as -3.229.
On to “KSTLKPQPAPQAGPIPVAPIGTLKPQPQPVPASYTTASTSSrPTFNVQVK”, for which, in assay [1] (difference of log2 means, CARM1 140-608 vs WT), the “CARM1 140-608/WT” value is -2.692. Also, the KO/WT in assay [1] (difference of log2 means, KO vs WT) was -3.309. Besides, the “Fold change KO/WT” value in assay [2] (setting [15]) is -3.309.
“KVPQPCSSATLNrLTVPrYSIPTGDPPPYPEIASQLAQGR”: the “CARM1 140-608/WT” value in assay [1] (setting [10]) was -2.332. Moreover, the KO/WT in assay [1] (setting [11]) was -4.368. In assay [2] (setting [12]), the “Fold change KO/WT” value was -4.368.
For the substance KYPLPPPSGrYNWN, the “CARM1 140-608/WT” value in assay [1] (setting [10]) is listed as -1.833. In assay [1] (setting [11]), the KO/WT is given as -2.65. Besides, the “Fold change KO/WT” value in assay [2] (setting [12]) was -1.439.
With “LAMDFGGAGAAQQGLTDSCQSGGVPTAVQNLAPrAAVAAAAPrAVAPYK”, the “CARM1 140-608/WT” value in assay [1] (setting [5]) was -1.57. Also, the KO/WT in assay [1] (setting [6]) is -4.352. In addition, the “Fold change KO/WT” value in assay [2] (setting [7]) was -4.352.
Regarding LAQDPYrLGHDPYR, in assay [1], the “CARM1 140-608/WT” value was -0.7785 and the KO/WT is recorded as -0.6293. Moreover, the “Fold change KO/WT” value in assay [2] (setting [9]) was -0.6293.
In the case of LAQNAArIPGIPrHSGPQYSMMQPHLQR, in assay [1] (setting [10]), the “CARM1 140-608/WT” value is on record as -0.4462. For the same substance, the KO/WT in assay [1] (setting [11]) was -2.068. For the same substance, in assay [2] (setting [12]), the “Fold change KO/WT” value is -2.189.
For LEPPLTPrCPLDFAPQTLSFPYAR, the “CARM1 140-608/WT” value in assay [1] (setting [19]) is on record as -2.973. Further, the KO/WT in assay [1] (setting [20]) is -5.801. Moreover, the “Fold change KO/WT” value in assay [2] (setting [21]) is -5.801.
With LFHLPEYTWrLPCGGVR, in assay [1] (setting [8]), the “CARM1 140-608/WT” value was 0.09104 and the KO/WT is given as -2.175. Besides, the “Fold change KO/WT” value in assay [2] (setting [9]) is recorded as -2.1298.
